The results in this text go back to PubChem BioAssay AID248 (DTP/NCI, 2004).

Values joined by “and” are separate entries in the source; they are usually repeats but may differ in a detail not shown here. Equal values may be shown once. Toxic doses and inconclusive results are not listed.

The test system of this test is L1210 leukemia ip in BDF1 mice, survival T/C. In words: NCI In Vivo Anticancer Drug Screen. Data for tumor model L1210 Leukemia (intraperitoneal) in B6D2F1 (BDF1) mice. The note with it: endpoint: mean survival time, higher = longer survival. The essentials:
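Each compound was tested against a transplantable tumor grown in mice. The endpoint was survival, with treated animals benchmarked against vehicle controls as a simple ratio.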

[1] abbreviates: dose: 100.0 mg/kg/injection, schedule: Q04DX003 (ip), vehicle: saline.
The mark [2] stands for this setting: dose: 200.0 mg/kg/injection, schedule: Q04DX003 (ip), vehicle: saline.
Where [3] appears, read: dose: 400.0 mg/kg/injection, schedule: Q04DX003 (ip), vehicle: saline.
Where [4] appears, read: dose: 100.0 mg/kg/injection, schedule: Q04DX002 (ip), vehicle: Klucel (hydroxypropylcellulose) (HPC).
Where [5] appears, read: dose: 200.0 mg/kg/injection, schedule: Q04DX002 (ip), vehicle: Klucel (hydroxypropylcellulose) (HPC).
[6] abbreviates: dose: 400.0 mg/kg/injection, schedule: Q04DX002 (ip), vehicle: Klucel (hydroxypropylcellulose) (HPC).
Setting [7] is: dose: 100.0 mg/kg/injection, schedule: Q04DX003 (ip), vehicle: saline with Tween-80.
The mark [8] stands for this setting: dose: 200.0 mg/kg/injection, schedule: Q04DX003 (ip), vehicle: saline with Tween-80.
Setting [9] is: dose: 400.0 mg/kg/injection, schedule: Q04DX003 (ip), vehicle: saline with Tween-80.
Where [10] appears, read: dose: 400.0 mg/kg/injection, schedule: Q04DX002 (ip), vehicle: saline with Tween-80.

Turning to `COc1ccc(CN(CCO)C(C)=O)cc1`, the T/C runs as follows: (dose: 100.0 mg/kg/injection, schedule: Q01DX009 (ip), vehicle: saline) 100 % of control; under setting [1], 112 % of control; (dose: 200.0 mg/kg/injection, schedule: Q01DX009 (ip), vehicle: saline) 105 % of control; under setting [2], 107 % of control; (dose: 400.0 mg/kg/injection, schedule: Q01DX009 (ip), vehicle: saline) 103 % of control; under setting [3], 119 % of control.

With `Cc1cc(=O)[nH]c2c(O)ccc([N+](=O)[O-])c12`, the T/C was 103 % of control under setting [1], 103 % of control under setting [2] and 103 % of control under setting [3].

Take `CN(C)CC1CCCCCC(Br)C1=O` (configuration not stated): the T/C is, setting by setting: (dose: 75.0 mg/kg/injection, schedule: Q01DX001 (ip), vehicle: other) 98 % of control; (dose: 150.0 mg/kg/injection, schedule: Q01DX001 (ip), vehicle: other) 95 % of control; (dose: 300.0 mg/kg/injection, schedule: Q01DX001 (ip), vehicle: other) 107 % of control.

For the molecule `C1=CC2C1C1(Cc3ccccc3)N=NC2(Cc2ccccc2)C2C=CC21` (configuration not stated), the T/C is, setting by setting: under setting [4], 97 % of control; under setting [5], 94 % of control; under setting [6], 87 % of control.

For `OC1C=Cc2ccccc21` (configuration not stated), the T/C reads like this: (dose: 100.0 mg/kg/injection, schedule: Q04DX002 (ip), vehicle: other) 97 % of control; (dose: 200.0 mg/kg/injection, schedule: Q04DX002 (ip), vehicle: other) 97 % of control.

`Cc1c(C#N)c2nc(C(=O)c3ccc(Br)cc3)cc(-c3ccc(Br)cc3)n2c1C`: the T/C was 98 % of control (dose: 50.0 mg/kg/injection, schedule: Q04DX003 (ip), vehicle: saline with Tween-80); 111 % of control under setting [7]; 103 % of control under setting [8]; 106 % of control under setting [9].

As to `COc1cc(C(=O)NN(C)C)cc(OC)c1OC`, the T/C is, setting by setting: (dose: 100.0 mg/kg/injection, schedule: Q01DX001 (ip), vehicle: carboxymethylcellulose (CMC)) 97 % of control; (dose: 200.0 mg/kg/injection, schedule: Q01DX001 (ip), vehicle: carboxymethylcellulose (CMC)) 101 % of control; (dose: 400.0 mg/kg/injection, schedule: Q01DX001 (ip), vehicle: carboxymethylcellulose (CMC)) 101 % of control.

Turning to `CCS(=O)(=O)c1ccc(NC(=O)OC2CCC3(C)C(=CCC4C3CCC3(C)C(C(C)CCCC(C)C)CCC43)C2)cc1` (configuration not stated), the T/C by setting is: (dose: 100.0 mg/kg/injection, schedule: Q01DX001 (sc), vehicle: steriod suspending solution) 97 % of control; (dose: 200.0 mg/kg/injection, schedule: Q01DX001 (sc), vehicle: steriod suspending solution) 100 % of control; (dose: 400.0 mg/kg/injection, schedule: Q01DX001 (sc), vehicle: steriod suspending solution) 94 % of control.

Turning to `C=CCc1ccc(OC(C)OCCOCCOCC)c(OC)c1` (configuration not stated), the T/C is, setting by setting: (dose: 100.0 mg/kg/injection, schedule: Q04DX002 (ip), vehicle: saline) 92 % of control; (dose: 200.0 mg/kg/injection, schedule: Q04DX002 (ip), vehicle: saline) 96 % of control; (dose: 400.0 mg/kg/injection, schedule: Q04DX002 (ip), vehicle: saline) 101 % of control.

Turning to `Cc1ccc(NC(=O)Oc2cc(=O)oc3ccccc23)c([N+](=O)[O-])c1`, the T/C is 89 % of control (dose: 100.0 mg/kg/injection, schedule: Q04DX003 (ip), vehicle: Klucel (hydroxypropylcellulose) (HPC)); 94 % of control (dose: 200.0 mg/kg/injection, schedule: Q04DX003 (ip), vehicle: Klucel (hydroxypropylcellulose) (HPC)); 96 % of control (dose: 400.0 mg/kg/injection, schedule: Q04DX003 (ip), vehicle: Klucel (hydroxypropylcellulose) (HPC)).

Consider `O=C(NP(=O)(N1CC1)N1CC1)OCc1ccccc1`, for which the T/C is 118 % of control and 122 % of control (dose: 3.0 mg/kg/injection, schedule: Q01DX Z (ip), vehicle: saline); 118 % of control (dose: 3.13 mg/kg/injection, schedule: Q01DX006 (iv), vehicle: clinical formulation); 118 % of control and 120 % of control (dose: 3.13 mg/kg/injection, schedule: Q01DX009 (ip), vehicle: saline); 104 % of control (dose: 6.0 mg/kg/injection, schedule: Q01DX Z (ip), vehicle: saline); 115 % of control (dose: 6.25 mg/kg/injection, schedule: Q01DX006 (iv), vehicle: clinical formulation); 109 % of control and 121 % of control (dose: 6.25 mg/kg/injection, schedule: Q01DX009 (ip), vehicle: saline). Further, the T/C runs as follows: (dose: 10.0 mg/kg/injection, schedule: Q01DX006 (iv), vehicle: saline) 117 % of control; (dose: 12.0 mg/kg/injection, schedule: Q01DX Z (ip), vehicle: saline) 196 % of control; (dose: 12.5 mg/kg/injection, schedule: Q01DX001 (ip), vehicle: saline) 93 % of control; (dose: 12.5 mg/kg/injection, schedule: Q01DX006 (iv), vehicle: clinical formulation) 120 % of control; (dose: 12.5 mg/kg/injection, schedule: Q01DX009 (ip), vehicle: saline) 97 % of control and 114 % of control; (dose: 20.0 mg/kg/injection, schedule: Q01DX006 (iv), vehicle: saline) 117 % of control. The T/C (dose: 25.0 mg/kg/injection, schedule: Q01DX001 (ip), vehicle: saline) is 93 % of control; the T/C (dose: 25.0 mg/kg/injection, schedule: Q01DX009 (ip), vehicle: saline) was 101 % of control and 109 % of control; the T/C (dose: 48.0 mg/kg/injection, schedule: Q01DX Z (ip), vehicle: saline) was 123 % of control; the T/C (dose: 50.0 mg/kg/injection, schedule: Q01DX001 (ip), vehicle: saline) was 103 % of control; the T/C (dose: 50.0 mg/kg/injection, schedule: Q01DX006 (iv), vehicle: clinical formulation) was 153 % of control; the T/C (dose: 50.0 mg/kg/injection, schedule: Q01DX009 (ip), vehicle: saline) is 124 % of control. Besides, the T/C reads like this: (dose: 50.0 mg/kg/injection, schedule: Q01DX010 (oral), vehicle: saline) 100 % of control; (dose: 80.0 mg/kg/injection, schedule: Q01DX006 (iv), vehicle: saline) 156 % of control; (dose: 100.0 mg/kg/injection, schedule: Q01DX001 (ip), vehicle: saline) 98 % of control; (dose: 100.0 mg/kg/injection, schedule: Q01DX010 (oral), vehicle: saline) 111 % of control; (dose: 200.0 mg/kg/injection, schedule: Q01DX010 (oral), vehicle: saline) 105 % of control; (dose: 400.0 mg/kg/injection, schedule: Q01DX010 (oral), vehicle: saline) 106 % of control.

Take `Nc1ccccc1CCc1ccccc1`: the T/C under setting [4] is 103 % of control, the T/C under setting [5] is 100 % of control and the T/C under setting [6] is 100 % of control.

In the case of `CN(C)CCN(C)C(=O)C(O)(c1ccccc1)c1ccccc1`, the T/C reads like this: (dose: 100.0 mg/kg/injection, schedule: Q04DX002 (ip), vehicle: saline with Tween-80) 97 % of control; (dose: 200.0 mg/kg/injection, schedule: Q04DX002 (ip), vehicle: saline with Tween-80) 97 % of control; under setting [10], 97 % of control.

For the molecule `c1ccc(C(c2ccccc2)[Si](c2ccccc2)(C(c2ccccc2)c2ccccc2)C(c2ccccc2)c2ccccc2)cc1`, the T/C (dose: 25.6 mg/kg/injection, schedule: Q04DX002 (ip), vehicle: saline with Tween-80) is 96 % of control; the T/C (dose: 37.5 mg/kg/injection, schedule: Q01DX009 (ip), vehicle: Klucel (hydroxypropylcellulose) (HPC)) was 93 % of control; the T/C (dose: 64.0 mg/kg/injection, schedule: Q04DX002 (ip), vehicle: saline with Tween-80) was 100 % of control; the T/C (dose: 75.0 mg/kg/injection, schedule: Q01DX009 (ip), vehicle: Klucel (hydroxypropylcellulose) (HPC)) was 88 % of control; the T/C under setting [7] is 94 % of control; the T/C (dose: 160.0 mg/kg/injection, schedule: Q04DX002 (ip), vehicle: saline with Tween-80) was 93 % of control. Further, the T/C runs as follows: under setting [8], 100 % of control; under setting [10], 104 % of control; under setting [9], 94 % of control.
